# Measured values taken from patent US20060154903A1, “Betulinol derivatives as anti-cancer agents” (priority 2004, published 2006).
# Like-named read-outs stand apart in the source and are kept apart here.
# Assays:
# [1] = system: human prostate cancer LNCaP cell line; test: MTT cytotoxicity assay, LNCaP; assay type: cell-based; details: LNCaP; for inhibition at 100 µM / inhibition at 10 µM / inhibition at 1 µM: Homo sapiens, read-out: Growth Inhibition %; for inhibition at 100 µM: 1 × 10^−4 M; for inhibition at 10 µM: 1 × 10^−5 M; for inhibition at 1 µM: 1 × 10^−6 M
# Description: The human prostate cancer LNCaP, PC-3, and DU-145 cell lines, as well as human fibroblast cell line, were obtained from the American Type Culture Collection (“ATCC”) and maintained in RPMI-1640, F-12k, and MEM mediums, respectively, supplemented with 10% FBS. Cell lines were maintained at 37° C. under a humidified atmosphere and 5% CO2 for testing of the cytotoxicity of betulinol derivatives. The cytotoxicity assay was performed using MTT assay according to the instructions of ATCC protocol. Cells 1×10^5 in 0.1 ml/well were plated in 96-well culture plates (Costar) and incubated with a different dilution of betulinol derivatives for 24, 48, and 72 hours. Ten μl of 3-[4,5-dimethylthiazol-2-yl]-2,5 diphenyl tetrazolium bromide was added into each well at the end of each incubation period. The reaction product, formazan, was dissolved in the detergent, and the absorbance was read at 540 nm (Ref).
# (§1) However, these compounds were not tested on prostate cancer LNCaP cell line by NCI. […] The anti-tumor activity of the compounds was determined at three doses and the total growth inhibition kill effect as pertinent of the control at 24, 48, and 72 hours as presented in Table 11.
# [2] = system: carcinoma cell line CO-115 of the large intestine; details: cytotoxic activity; cited from earlier work
# SF-268 = test: In vitro cytotoxicity, CNS (2), SF-268; assay type: cell-based, human
# NCI-H460 = test: In vitro cytotoxicity, Lung (2), NCI-H460; assay type: cell-based, human
# Bladder cancer cells = details: 1 × 10^−4 M; Bladder (1), cell line not given
# [3] = system: different human tumor cell lines; test: In vitro cell toxicity test by NCI, tumor cell line panel; assay type: cell-based; details: tested by NCI; comparison among compounds 2, 3, 4 and 5
# MCF7 = test: In vitro cytotoxicity, Breast (2), MCF7; assay type: cell-based, human
# RXF 393 = test: In vitro cytotoxicity, Renal (2), RXF 393; assay type: cell-based, human
# DU-145 = test: In vitro cytotoxicity, Prostate (2), DU-145; assay type: cell-based, human
# OVCAR-5 = test: In vitro cytotoxicity, Ovarian (2), OVCAR-5; assay type: cell-based, human
# Description: as §1
# TK-10 = test: In vitro cytotoxicity, Renal (2), TK-10; assay type: cell-based, human
# Description: as §1
# NCI-H322M = test: In vitro cytotoxicity, Lung (2), NCI-H322M; assay type: cell-based, human
# Description: as §1
# T-47d = test: In vitro cytotoxicity, Breast (2), T-47d; assay type: cell-based, human
# OVACR-3 = test: In vitro cytotoxicity, Ovarian (2), OVACR-3; assay type: cell-based, human
# Description: as §1
# CAKI-1 = test: In vitro cytotoxicity, Renal (2), CAKI-1; assay type: cell-based, human
# Description: as §1
# PC-3 = test: In vitro cytotoxicity, Prostate (2), PC-3; assay type: cell-based, human
# U251 = test: In vitro cytotoxicity, CNS (2), U251; assay type: cell-based, human
# HOP-92 = test: In vitro cytotoxicity, Lung (2), HOP-92; assay type: cell-based, human
# Description: as §1
# MALME-3M = test: In vitro cytotoxicity, Melanoma (2), MALME-3M; assay type: cell-based, human
# 184B5/HER = test: In vitro cytotoxicity, Breast (1), 184B5/HER; assay type: cell-based; details: 1 × 10^−4 M
# [4] = Tolerability of solubilized drug in mice with prostate cancer cell xenografts; assay type: in vivo; details: final concentration of 22% ethanol and 2×10^−3 mol per liter of betulonic acid
# Description: In the present experiment, twelve male athymic mice were utilized. Seven to ten million cells, from a prostate cancer LNCaP cell line culture, were suspended homogenously in a Matrigel basement membrane matrix and transplanted in mice as xenografts. Tumors were visible within a week. […] Control groups of mice were also injected daily with a solution containing 22% ethanol in phosphate buffer solution (PBS) containing 4% albumin for a duration of 24 days. […] The volume of the tumors was determined daily using a caliper in order to observe any change in the tumor volume (FIG. 12), calculated according to the formula π/6(1×w×h). Mice were sacrificed by CO2 asphyxiation on day 24 after the first injection (FIGS. 13A-D). Total percent increase in tumor volume in drug treated and control groups was assessed (FIG. 14).
# [5] = Solubility in DMSO diluted with culture medium (GC)
# Description: The residue was dissolved in chloroform analyzed on GC.
# Ethyl ether was then evaporated. […] Concentration of drug in the above solutions was analyzed by GC and determined from the standard solubility curve.
smiles,measurement,setting,value
"C=C(C)[C@@H]1CC[C@]2(C(=O)O)CC[C@]3(C)[C@H](CC[C@@H]4[C@@]5(C)CC[C@H](O)C(C)(C)[C@@H]5CC[C@]43C)[C@@H]12 [Compound 2, Betulinic Acid]",Growth Inhibition %,"[1]; 24 hours, 2.5 × 10^−5 (M)",41.0%
same,Growth Inhibition %,"[1]; 24 hours, 2.5 × 10^−6 (M)",24.6%
same,Growth Inhibition %,"[1]; 24 hours, 2.5 × 10^−7 (M)",11.72%
same,Growth Inhibition %,"[1]; 48 hours, 2.5 × 10^−5 (M)",73.3%
same,Growth Inhibition %,"[1]; 48 hours, 2.5 × 10^−6 (M)",69.4%
same,Growth Inhibition %,"[1]; 48 hours, 2.5 × 10^−7 (M)",62.8%
same,LD 50,[2],0.375 mg/mL
"C=C(C)[C@@H]1CC[C@]2(C=O)CC[C@]3(C)[C@H](CC[C@@H]4[C@@]5(C)CC[C@H](O)C(C)(C)[C@@H]5CC[C@]43C)[C@@H]12 [Compound 3, Betulin Aldehyde]",Growth Inhibition %,"[1]; 24 hours, 2.5 × 10^−5 (M)",29.5%
same,Growth Inhibition %,"[1]; 24 hours, 2.5 × 10^−6 (M)",11.0%
same,Growth Inhibition %,"[1]; 24 hours, 2.5 × 10^−7 (M)",6.34%
same,Growth Inhibition %,"[1]; 48 hours, 2.5 × 10^−5 (M)",72.3%
same,Growth Inhibition %,"[1]; 48 hours, 2.5 × 10^−6 (M)",40.9%
same,Growth Inhibition %,"[1]; 48 hours, 2.5 × 10^−7 (M)",27.6%
"C=C(C)C1CCC2(C=O)CCC3(C)C(CCC4C5(C)CCC(=O)C(C)(C)C5CCC43C)C12 (stereo not shown) [Compound 5, Betulon Aldehyde]",Percent Killed,SF-268; 1 × 10^−4 M,27%
same,Percent Killed,NCI-H460; 1 × 10^−4 M,89%
same,Percent Killed,Bladder cancer cells,29%
same,cell growth inhibitory properties against different human tumor cell lines,[3],most effective inhibition of cell growth without selective activity
same,Percent Killed,MCF7; 1 × 10^−4 M,68%
"C=C(C)[C@@H]1CC[C@]2(COC(C)=O)CC[C@]3(C)[C@H](CC[C@@H]4[C@@]5(C)CC[C@H](OC(C)=O)C(C)(C)[C@@H]5CC[C@]43C)[C@@H]12 [Compound 6, Betulin Diacetate]",Percent Killed,RXF 393; 1 × 10^−4 M,100%
same,Percent Killed,RXF 393; 1 × 10^−5 M,100%
same,Percent Killed,RXF 393; 1 × 10^−6 M,100%
same,Percent Killed,RXF 393; 1 × 10^−7 M,97%
same,Percent Killed,RXF 393; 1 × 10^−8 M,15%
same,Percent Killed,DU-145; 1 × 10^−4 M,100%
same,Percent Killed,DU-145; 1 × 10^−5 M,100%
same,Percent Killed,DU-145; 1 × 10^−6 M,100%
same,Percent Killed,DU-145; 1 × 10^−7 M,100%
same,Percent Killed,DU-145; 1 × 10^−8 M,27%
same,Percent Killed,OVCAR-5; 1 × 10^−4 M,100%
same,Percent Killed,OVCAR-5; 1 × 10^−5 M,100%
same,Percent Killed,OVCAR-5; 1 × 10^−6 M,100%
same,Percent Killed,TK-10; 1 × 10^−4 M,100%
same,Percent Killed,TK-10; 1 × 10^−5 M,100%
same,Percent Killed,TK-10; 1 × 10^−6 M,49%
same,Percent Killed,SF-268; 1 × 10^−4 M,100%
same,Percent Killed,SF-268; 1 × 10^−5 M,100%
same,Percent Killed,SF-268; 1 × 10^−6 M,100%
same,Percent Killed,SF-268; 1 × 10^−7 M,75%
same,Percent Killed,SF-268; 1 × 10^−8 M,15%
same,Percent Killed,NCI-H322M; 1 × 10^−4 M,100%
same,Percent Killed,NCI-H322M; 1 × 10^−5 M,100%
same,Percent Killed,NCI-H322M; 1 × 10^−6 M,100%
same,Percent Killed,NCI-H460; 1 × 10^−4 M,100%
same,Percent Killed,NCI-H460; 1 × 10^−5 M,100%
same,Percent Killed,NCI-H460; 1 × 10^−6 M,100%
same,Percent Killed,NCI-H460; 1 × 10^−7 M,25%
same,Percent Killed,T-47d; 1 × 10^−4 M,100%
same,Percent Killed,T-47d; 1 × 10^−5 M,100%
same,Percent Killed,T-47d; 1 × 10^−6 M,100%
same,Percent Killed,T-47d; 1 × 10^−7 M,23%
same,Percent Killed,OVACR-3; 1 × 10^−4 M,100%
same,Percent Killed,OVACR-3; 1 × 10^−5 M,100%
same,Percent Killed,OVACR-3; 1 × 10^−6 M,96%
same,Percent Killed,CAKI-1; 1 × 10^−4 M,100%
same,Percent Killed,CAKI-1; 1 × 10^−5 M,100%
same,Percent Killed,CAKI-1; 1 × 10^−6 M,100%
same,Percent Killed,PC-3; 1 × 10^−4 M,25%
same,Percent Killed,PC-3; 1 × 10^−5 M,15%
same,Percent Killed,U251; 1 × 10^−4 M,100%
same,Percent Killed,U251; 1 × 10^−5 M,100%
same,Percent Killed,U251; 1 × 10^−6 M,100%
same,Percent Killed,U251; 1 × 10^−7 M,100%
same,Percent Killed,HOP-92; 1 × 10^−4 M,100%
same,Percent Killed,HOP-92; 1 × 10^−5 M,100%
same,Percent Killed,HOP-92; 1 × 10^−6 M,100%
same,Percent Killed,MCF7; 1 × 10^−4 M,100%
same,Percent Killed,MCF7; 1 × 10^−5 M,100%
same,Percent Killed,MCF7; 1 × 10^−6 M,100%
same,Percent Killed,MCF7; 1 × 10^−7 M,100%
same,Percent Killed,MALME-3M; 1 × 10^−4 M,100%
same,Percent Killed,MALME-3M; 1 × 10^−5 M,100%
same,Percent Killed,MALME-3M; 1 × 10^−6 M,100%
same,Percent Killed,MALME-3M; 1 × 10^−7 M,100%
same,Percent Killed,MALME-3M; 1 × 10^−8 M,98%
"C=C(C)C1CCC2(COC)CCC3(C)C(CCC4C5(C)CCC(OC)C(C)(C)C5CCC43C)C12 (stereo not shown) [Compound 7, Betulin Dimethyl ether (Cornelon)]",Percent Killed,SF-268; 1 × 10^−4 M,100%
same,Percent Killed,NCI-H460; 1 × 10^−4 M,80%
same,Percent Killed,Bladder cancer cells,30%
same,Percent Killed,184B5/HER,Toxic
same,Percent Killed,MCF7; 1 × 10^−4 M,97%
"C=C(C)[C@@H]1CC[C@]2(CO)CC[C@]3(C)[C@H](CC[C@@H]4[C@@]5(C)CC[C@H](OC(C)=O)C(C)(C)[C@@H]5CC[C@]43C)[C@@H]12 [Compound 8, 3-Acetoxy Betulin]",Growth Inhibition %,"[1]; 24 hours, 2.5 × 10^−5 (M)",12.4%
same,Growth Inhibition %,"[1]; 24 hours, 2.5 × 10^−6 (M)",10.4%
same,Growth Inhibition %,"[1]; 24 hours, 2.5 × 10^−7 (M)",0%
same,Growth Inhibition %,"[1]; 48 hours, 2.5 × 10^−5 (M)",28.3%
same,Growth Inhibition %,"[1]; 48 hours, 2.5 × 10^−6 (M)",44.7%
same,Growth Inhibition %,"[1]; 48 hours, 2.5 × 10^−7 (M)",17.4%
C=C(C)C1CCC2(C(=O)NCCCCC(NC(=O)OC(C)(C)C)C(=O)O)CC[C@]3(C)[C@H](CC[C@@H]4[C@@]5(C)CCC(=O)C(C)(C)[C@@H]5CC[C@]43C)C12 (stereo partly shown) [Monomer-Boc],tolerability in mice,[4],well tolerated
same,Concentration of drug (mg/mL),[5],0.7 mg/mL
same,Concentration of drug (mol/L),[5],0.001 mol/L
C=C(C)C1CCC2(C(=O)NCCCCC(NC(=O)OC(C)(C)C)C(=O)OC)CC[C@]3(C)[C@H](CC[C@@H]4[C@@]5(C)CCC(=O)C(C)(C)[C@@H]5CC[C@]43C)C12 (stereo partly shown) [Monomer],inhibition at 100 µM,"[1]; 24 h, 24 hours",76.5 ± 22.6%
same,inhibition at 10 µM,"[1]; 24 h, 24 hours",19 ± 14.4%
same,inhibition at 1 µM,"[1]; 24 h, 24 hours",5.5 ± 7.32%
same,inhibition at 100 µM,"[1]; 48 h, 48 hours",~80%
same,inhibition at 10 µM,"[1]; 48 h, 48 hours",36.8%
same,inhibition at 1 µM,"[1]; 48 h, 48 hours",15 ± 11.2%
same,inhibition at 100 µM,"[1]; 72 h, 72 hours",79.2 ± 16.5%
same,inhibition at 10 µM,"[1]; 72 h, 72 hours",40.5 ± 33.6%
same,inhibition at 1 µM,"[1]; 72 h, 72 hours",17.2 ± 32.5%
